Among the data in US11739385B2, “Discovery of a somatic mutation in MYD88 gene in lymphoplasmacytic lymphoma” (Dana-Farber Cancer Institute, Inc., priority 2011, dated 2023) are apoptosis and NF-κB signaling values, retold here.

The structures appear in SMILES notation. Read-outs that look alike come from different tables or passages of the source.

In assay [1] the test system is MYD88 L265P expressing WM cells. Nature of the assay: Apoptosis analysis by Annexin V and PI staining. The class given is cell-based. The settings on record: BCWM.1 and MWCL-1 WM cells which possess the MYD88 L265P mutation. The method, then:
Western blot analysis was performed using total and phospho-specific antibodies in MYD88 L265P expressing WM cells, BCWM.1 and MCWL-1 following MYD88 knockdown by lentiviral transduction, and/or use of MYD88 or IRAK signal inhibitors. […] Annexin V/PI staining was used to assess cell survival, and synergism assessed with CalcuSyn software.

Assay [2] concerns NF-κB signaling. In words: NF-κB signaling in BCWM.1 and MWCL-1 WM cells. The assay is classed as cell-based. The settings on record: BCWM.1 and MWCL-1 WM cells which possess the MYD88 L265P mutation.
The test system of assay [3] is NF-κB signaling. The settings on record: L265P expressing ABC DLBCL cell lines; cited from earlier work.

For `O=C(Nc1nc2ccccc2n1CCN1CCOCC1)c1cccc([N+](=O)[O-])c1` [IRAK1/4 inhibitor, N-(2-Morpholinylethyl)-2-(3-nitrobenzoylamido)-benzimidazole], the apoptosis result in assay [1] is “enhanced apoptosis”. Besides, the NF-κB signaling entry in the assay on NF-κB signaling [2] and in the assay on NF-κB signaling [3] was “loss of NF-κB signaling” throughout.
